Measurements: publication PMC10046377, “Inhibitors of the Oncogenic PA2G4-MYCN Protein-Protein Interface” (Cancers, 2023)

Columns and labels:
Assay type in all cases: cell-based, human
[1] = test system: cleaved PARP and cleaved Caspase 3; assay: Western blot of apoptotic markers; conditions: compared to WS6 treatment at IC50 concentration; no changes in Bcl-2 or Bax
Procedure: Protein was extracted from cell pellets using RIPA buffer (Sigma) with 10% protease inhibitor (Sigma, Sydney, Australia). Quantification of proteins was conducted using Pierce BCA protein assay kit (Thermo Scientific), according to manufacturer’s instructions. A total of 30–50 μg protein samples were loaded onto Criterion TGX 10% precast gel (Bio-Rad) or NuPAGE™ 4–12% Mini Protein Gel (Invitrogen, Life technologies) and transferred to a nitrocellulose membrane (Bio-Rad). […] Quantification of protein expression was measured by Image Lab software (Bio-Rad) and normalised to loading control.
To determine if the drug effects led to apoptosis, we stained cells with annexin-V/7-AAD, a marker of early and late apoptotic events (Figure 2D). […] To confirm the apoptotic status of the cells, protein expression of key apoptotic markers PARP/Cleaved PARP, Caspase 3/Cleaved caspase 3, BCL2, and Bax was measured (Figure 2E).

[2] = test system: neuroblastoma cells (Kelly and SK-N-BE(2)-C); assay: BrdU cell proliferation assay; conditions: 30 μM drug treatment for 48 h
Procedure: Cells were seeded in 96-well plates the day before and then treated with #5333 and #5338 for […]. Cell proliferation was measured using the BrdU ELISA kit (Roche, Millers Point, Australia), according to the manufacturer’s instructions. 10 μM BrdU was added to media and incubated at 37 °C in 5% CO2 for 2 h. Cells were fixed with supplied fixing solution for 30 min and then blocked with 10% FCS in PBS for 10 min. Peroxidase-conjugated anti-BrdU (1:100) was added and incubated for 90 min at room temperature. After washing with PBS for three times, peroxidase substrate was added to the cells. Changes in cell proliferation were calculated from the absorbance readings at 370 nm (495 nm reference wavelength) on the Benchmark Plus microplate reader (Bio-Rad).
(§1) We treated human neuroblastoma tumour cell lines with high MYCN and PA2G4 expression (Kelly and SK-N-BE(2)-C), using increasing concentrations of #5333 or #5338, and measured the ability of cells to proliferate and form colonies in vitro over 2 weeks. […] Next, we evaluated cell replication using the BrdU uptake assay in response to 30 μM drug treatment for 48 h (Figure 2C).

SK-N-BE(2)-C cells = assay: Colony formation assay, SK-N-BE(2)-C; conditions: increasing concentrations, 2 weeks
Procedure: A total of 250 SK-N-BE(2)-C and 500 Kelly cells were seeded in 6-well plates and treated with #5333 and #5338 24 h after seeding. Once colonies had formed (14 days for Kelly, 10 days for SK-N-BE(2)-C), cells were fixed and stained with 0.5% crystal violet in 50% methanol and washed twice to remove the unincorporated stain. The photos of colonies were taken by ChemiDoc MP Imaging System (Bio-Rad, South Granville, NSW, Australia). Stained colonies were counted, and colony size was measured using Image J software.
as §1

| SMILES | expression of cleaved PARP and cleaved Caspase 3 [1] | cell proliferation (BrdU uptake) [2] | colony number and size, SK-N-BE(2)-C (SK-N-BE(2)-C cells) |
| --- | --- | --- | --- |
| Cc1cccc(Oc2cc(N3CCC(C(=O)N[C@@H](C)CCc4ccccc4)CC3)ncn2)c1C [#5338] | increased | significantly reduced | decreased both the number and size of the colonies |
| Cc1cccc(Oc2cc(N3CCC(C(=O)NCc4cccc(Br)c4)CC3)ncn2)c1C [#5333] | increased | significantly reduced | decreased both the number and size of the colonies |
